Data as given in ChEMBL document CHEMBL5247631, “Ferroptosis-related small-molecule compounds in cancer therapy: Strategies and applications” (Eur J Med Chem, 2022).

Tests used:
HEp-2 = assay: Anticancer activity against human HEp-2 cells assessed as reduction in cell viability incubated for 72 hrs by MTT assay; assay type: functional, cell-based; settings: HEp-2, 72 h
THP-1 = assay: Anticancer activity against human THP-1 cells assessed as reduction in cell viability incubated for 72 hrs by MTT assay; assay type: functional, cell-based; settings: THP-1, 72 h
CNE = assay: Anticancer activity against human CNE cells assessed as reduction in cell viability incubated for 72 hrs by MTT assay; assay type: functional, cell-based
[1] = Anticancer activity against human U87 cells assessed as reduction in cell viability incubated for 72 hrs by MTT assay; assay type: functional, cell-based, U-87MG ATCC; settings: U-87 MG
A 172 = assay: Anticancer activity against human A-172 cells assessed as reduction in cell viability incubated for 72 hrs by MTT assay; assay type: functional, cell-based; settings: A 172, 72 h
HL-60 = assay: Anticancer activity against human HL-60 cells assessed as reduction in cell viability incubated for 72 hrs by MTT assay; assay type: functional, cell-based; settings: HL-60, 72 h
MDA-MB-231 [2] = assay: Cytotoxicity against human MDA-MB-231 cells assessed as inhibition of cell viability incubated for 24 hrs by sulforhodamine B assay; assay type: functional, cell-based; settings: MDA-MB-231, 24 h
DBTRG-05MG = assay: Cytotoxicity against human DBTRG-05MG cells assessed as inhibition of cell viability incubated for 24 hrs by sulforhodamine B assay; assay type: functional, cell-based
MCF7 = assay: Anticancer activity against human MCF7 cells assessed as inhibition of cell viability incubated for 48 hrs by CCK-8 assay; assay type: functional, cell-based; settings: MCF7, 48 h
MDA-MB-231 [3] = assay: Anticancer activity against human MDA-MB-231 cells assessed as inhibition of cell viability incubated for 48 hrs by CCK-8 assay; assay type: functional, cell-based; settings: MDA-MB-231, 48 h
HT-1080 [4] = assay: Induction of ferroptosis in human HT-1080 cells assessed as inhibition of (cystine-glutamate antiporter) system Xc- mediated cystine transport; assay type: functional, cell-based
Calu-1 = assay: Induction of ferroptosis in human Calu-1 cells assessed as inhibition of (cystine-glutamate antiporter) system Xc- mediated cystine transport; assay type: functional, cell-based
[5] = Induction of ferroptosis in human BJeLR cells assessed as inhibition of (cystine-glutamate antiporter) system Xc- mediated cystine transport; assay type: functional, cell-based; settings: bjelr cell
HCT-116 = assay: Antitumor activity against human HCT-116 cells assessed as reduction in cell viability incubated for 48 hrs by CCK8 assay; assay type: functional, cell-based; settings: HCT-116, 48 h
RKO = assay: Antitumor activity against human RKO cells assessed as reduction in cell viability incubated for 48 hrs by CCK8 assay; assay type: functional, cell-based
SW480 [6] = assay: Antitumor activity against human SW480 cells assessed as reduction in cell viability incubated for 48 hrs by CCK8 assay; assay type: functional, cell-based; settings: SW480, 48 h
MEF = assay: Antitumor activity against mouse MEF cells xenografted in nude mouse assessed as reduction in tumor weight at 40 mg/kg, po twice daily for 7 days relative to control; assay type: functional; design: scale not given: the % may be the effect or the level left; settings: time 7 day
[7] = Antiproliferative activity against BALB/C mouse TBCP-1 cells assessed as inhibition of cell proliferation incubated for 3 days by sulforhodamine B colorimetric assay; assay type: functional, cell-based; settings: TBCP-1, 72 h
SK-BR-3 = assay: Antiproliferative activity against human SK-BR-3 cells assessed as inhibition of cell proliferation incubated for 3 days by sulforhodamine B colorimetric assay; assay type: functional, cell-based; settings: SK-BR-3, 72 h
[8] = Induction of ferroptosis in human U-87 MG cells assessed as decrease in GPX4 protein expression incubated for 48 hrs by Western blot analysis; assay type: functional, cell-based, U-87MG ATCC
Glioblastoma cell line = assay: Induction of ferroptosis in human primary glioblastoma cells assessed as decrease in GPX4 protein expression incubated for 48 hrs by Western blot analysis; assay type: functional, cell-based
BXPC-3 = assay: Anticancer activity against human BXPC-3 cells assessed as reduction in cell viability incubated for 48 hrs by MTT assay; assay type: functional, cell-based; settings: BXPC-3, 48 h
SW1990 = assay: Anticancer activity against human SW1990 cells assessed as reduction in cell viability incubated for 48 hrs by MTT assay; assay type: functional, cell-based; settings: SW1990, 48 h
[9] = Anticancer activity against human PHMLER expressing CD24low phenotype cells assessed as reduction in cell viability incubated for 72 hrs; assay type: functional, cell-based
HT-1080 [10] = assay: Antitumor activity against human HT-1080 cells assessed as inhibition of cell viability; assay type: functional, cell-based
Huh-7 = assay: Antitumor activity against human Huh-7 cells assessed as inhibition of cell viability; assay type: functional, cell-based
Hep 3B2 = assay: Antitumor activity against human Hep3B cells assessed as inhibition of cell viability; assay type: functional, cell-based
HepG2 = assay: Antitumor activity against human HepG2 cells assessed as inhibition of cell viability; assay type: functional, cell-based
SW480 [11] = assay: Anticancer activity against human SW480 cells assessed as reduction in cell viability incubated for 24 hrs in presence of 10% FBS by CCK8 assay; assay type: functional, cell-based; settings: SW480, 24 h
SGC-7901 = assay: Anticancer activity against human SGC-7901 cells assessed as inhibition of cell viability incubated for 72 hrs by MTT assay; assay type: functional, cell-based; settings: SGC-7901, 72 h
BGC-823 = assay: Anticancer activity against human BGC-823 cells assessed as inhibition of cell viability incubated for 72 hrs by MTT assay; assay type: functional, cell-based; settings: BGC-823, 72 h
NCI-N87 = assay: Anticancer activity against human NCI-N87 cells assessed as inhibition of cell viability incubated for 72 hrs by MTT assay; assay type: functional, cell-based; settings: NCI-N87, 72 h

Molecule `C[C@H]1[C@@H](O)O[C@@H]2O[C@@]3(C)CC[C@H]4[C@H](C)CC[C@@H]1[C@@]24OO3` [ARTENIMOL] has an IC50 (HEp-2) of 18.1 µM, an IC50 (THP-1) of 9.05 µM and an IC50 (CNE) of 18.4 µM. It also gave an IC50 [1] of 50 µM, an IC50 (A 172) of 66 µM and an IC50 (HL-60) of 6.82 µM.
In the case of `CC(C)(C)c1ccc(S(=O)(=O)/C=C/C#N)cc1` [BAY-11-7085], the IC50 (MDA-MB-231 [2]) is reported as 4.31 µM and the IC50 (DBTRG-05MG) is reported as 5.53 µM.
`COc1cc(/C=C/C(=O)CC(=O)/C=C/c2ccc(O)c(OC)c2)ccc1O` [CURCUMIN] gave an IC50 (MCF7) of 41.9 µM and an IC50 (MDA-MB-231 [3]) of 53.5 µM.
With `CCOc1ccccc1-n1c(C(C)N2CCN(C(=O)COc3ccc(Cl)cc3)CC2)nc2ccccc2c1=O` (centres undefined) [ERASTIN] the IC50 (HT-1080 [4]) was 0.2 µM, the IC50 (Calu-1) was 0.14 µM and the IC50 [5] was 625 nM.
Work on `C=CCc1ccc(O)c(-c2ccc(O)c(CC=C)c2)c1` [HONOKIOL] yielded an IC50 (HCT-116) of 47.6 µM, an IC50 (RKO) of 11.4 µM and an IC50 (SW480 [6]) of 15.1 µM.
Work on `C[C@H](CN1CCCC1)C(=O)c1ccc(C(F)(F)F)cc1` [LANPERISONE] yielded an Activity (MEF) of 37%.
`CCOc1cc2ncc(C#N)c(Nc3ccc(OCc4ccccn4)c(Cl)c3)c2cc1NC(=O)/C=C/CN(C)C` [NERATINIB] gave an IC50 [7] of 117 nM and an IC50 (SK-BR-3) of 7.2 nM.
For `COc1ccc(/C=C/C(=O)C(CC2CCC2)C(=O)/C=C/c2ccc(OC)c(OC)c2)cc1OC` [ROSOLUTAMIDE], the IC50 [8] was < 5 µM and the IC50 (Glioblastoma cell line) was 2000 nM.
In the case of `C[C@@H]1CC[C@@]2(OC1)O[C@H]1C[C@H]3[C@@H]4CC=C5C[C@@H](O)C[C@@H](O)[C@]5(C)[C@H]4CC[C@]3(C)[C@H]1[C@@H]2C` [RUSCOGENIN], the IC50 (BXPC-3) is reported as 7.32 µM and the IC50 (SW1990) is reported as 8.14 µM.
`CC[C@@H](C(=O)[C@@H](C)[C@@H](O)[C@H](C)[C@@H]1O[C@@H]([C@@H](CC)C(=O)O)CC[C@@H]1C)[C@H]1O[C@]2(C=C[C@@H](O)[C@]3(CC[C@@](C)([C@H]4CC[C@](O)(CC)[C@H](C)O4)O3)O2)[C@H](C)C[C@@H]1C` [SALINOMYCIN] showed an IC50 [9] of 1000 nM.
With `CNC(=O)c1cc(Oc2ccc(NC(=O)Nc3ccc(Cl)c(C(F)(F)F)c3)cc2)ccn1` [SORAFENIB] the IC50 (HT-1080 [10]) was < 10 µM, the IC50 (Huh-7) was < 10 µM and the IC50 (Hep 3B2) was < 10 µM. The IC50 (HepG2) was < 10 µM.
Molecule `O=C(O)c1cc(/N=N/c2ccc(S(=O)(=O)Nc3ccccn3)cc2)ccc1O` [SULFASALAZINE] has an IC50 (HT-1080 [4]) of 450 µM and an IC50 (Calu-1) of 460 µM.
With `CCC(C)/C=C(\C)[C@H]1C(C)=C[C@@]2(C)C[C@@H](C)CC[C@@H]2[C@H]1C(=O)C1=C/C(=C/c2ccc(O)cc2)NC1=O` (some centres undefined) [TALAROCONVOLUTIN A] the IC50 (SW480 [11]) was 8.15 µM.
Molecule `Cc1coc2c1C(=O)C(=O)c1c-2ccc2c1CCCC2(C)C` [TANSHINONE IIA] has an IC50 (SGC-7901) of 250 µM, an IC50 (BGC-823) of 2800 nM and an IC50 (NCI-N87) of 3.1 µM.
